Data set [1] in a line: stability test of aqueous solution, ratio of compound remaining after storage (HPLC). Format: physicochemical. The settings on record: 2 mass % in purified water, glass bottle, 40° C., light-shielding, 10 days. The method, then:
(under light-shielding condition) for 10 days. The ratio of the compound remaining after the storage was analyzed by using a high-performance liquid chromatograph equipped with Shodex (registered trademark of Showa Denko K.K.) SB802.5 HQ (mfd. by Showa Denko K.K.) column.
(Measurement Conditions for High-Performance Liquid Chromatography)

Data set [2] concerns guinea pig incised wound. The experiment in a line: collagen synthesis-accelerating effect in guinea pig model system having an incised wound. In kind it is in vivo. The settings on record: for Detachment tension / Hydroxyproline content: 0.2 ml test solution twice a day for four days (1) 2%; 2) and 3) 1%); for Detachment tension: incised wound on back; for Hydroxyproline content: skin section with incised wound, index of collagen; for effect on collagen synthesis and recovery of incised wound (in words): guinea pig incised wound. The source says:
The collagen synthesis-accelerating effects of the following 1) to 3) test substances was compared with each other, by using a guinea pig model system having an incised (or cut) wound. The base material for dissolving each test substance was purified water containing 20% of ethanol, and 3% of propylene glycol. In this experiment, two incised wounds each having a length of 2 cm were formed on the back of a guinea pig by using a scalpel, so that the incised wounds are positioned symmetrically with regard to the center portion of the back. Then, 0.2 ml of the test substance solution was administered thereto twice a day, for four days. After the last administration was completed, a skin piece of 2 cm×2 cm (square shape) was surgically removed from the back of the guinea pig, so that the incised wound portions were positioned substantially at the center of the skin piece. Then, the tension required for the detachment of the incised wound surface was measured. Five guinea pigs were used with respect to one kind of the test substances. […] After the separation thereof by centrifugation, the resultant supernatant was freeze-dried. The protein content of the thus obtained skin sample was hydrolyzed with hydrochloric acid, and was subjected to amino acid analysis by use of AccQ.Tag Amino acid Analyzer (mfd. by Waters Co.). The results of the detachment tension measurement for the incised wound portion to which each test substance had been applied, and the hydroxyproline content thereof were as follows. Herein, the hydroxyproline is a substance which can be taken as an index of collagen.

In data set [3] the test system is human skin tissue three-dimensional model (TESTSKIN LSD-d). The experiment in a line: amount of ascorbic acid in human skin tissue three-dimensional model after application of test solution. The note with it: for amount of the ascorbic acid, 2 hours after culture / amount of the ascorbic acid, 6 hours after culture / amount of the ascorbic acid, 12 hours after culture: 40 μL test solution in Dulbecco PBS(−) applied 2 h (1) 2%; 2) and 3) 0.5%), removed; for amount of the ascorbic acid, 2 hours after culture: then cultured 2 hours; for amount of the ascorbic acid, 6 hours after culture: then cultured 6 hours; for amount of the ascorbic acid, 12 hours after culture: then cultured 12 hours; for concentration of ascorbic acid in the tissue (in words): administered to the skin model. Format: cell-based. The procedure: To the surface of a human skin tissue three-dimensional model (trademark: TESTSKIN LSD-d, mfd. by Toyobo Co., Ltd.), 40 μL of a solution which had been obtained by dissolving each of the substances (1) to (3) to be tested in Dulbecco PBS (−), and the resultant skin tissue model was cultured at 37° C. in the presence of 5% CO2 for two hours. Then, the test solution was removed by aspiration, and thereafter the skin tissue model was cultured at 37° C. in the presence of 5% CO2 for 2, 6 and 12 hours, respectively.
Each of the portions of the skin model which had been sampled at each culture time was washed with Dulbecco PBS (−), the surface portion was punched out by using a punch having a diameter of 6 mm φ, and homogenized in a HEPES buffer solution (pH 7.2) to obtain a homogenate. By use of the thus obtained homogenate, the amount of the ascorbic acid contained in the skin model was quantitatively analyzed by using a high performance liquid chromatography. The protein content in the skin model was quantitatively analyzed by using the Lowry method.
Measurement Conditions for High Performance Liquid Chromatography

Each structure is given as a SMILES string.

Turning to `CCCCCCCCCCCCCCCC(=O)OC[C@H](O)[C@H]1OC(=O)C(OP(=O)(O)O)=C1O.[Na]` [Comparative Example A-1, L-ascorbic acid-2-phosphoric acid-6-palmitatic acid ester sodium salt, reference compound], in data set [1], the “Residual Ratio (%)” value amounted to 88.6%.
For the compound `O=C1O[C@H]([C@@H](O)CO)C(O)=C1OP(=O)([O-])[O-].[Na+].[Na+]` [Comparative Example A-2, L-ascorbic acid-2-phosphate sodium salt, reference compound], the “Residual Ratio (%)” value in data set [1] stood at 96.9%. In data set [2], this compound had a Detachment tension of 123 g/cm and a Hydroxyproline content of 32.1 nmol/skin wet weight.
As for `CCCCCCCCC(CCCCCC)C(=O)OC[C@H](O)[C@H]1OC(=O)C(OP(=O)(O)O)=C1O.[Na]` (stereo partly drawn) [Example A-1, L-Ascorbic acid-2-phosphoric acid-6-(2′-hexyldecanoate) sodium salt], the “Residual Ratio (%)” value in data set [1] is 95.3%. For the same compound, in data set [3], the “amount of the ascorbic acid, 2 hours after culture” value is reported as 6 nmol/mg skin protein; the “amount of the ascorbic acid, 6 hours after culture” value was found to be 10 nmol/mg skin protein; the “amount of the ascorbic acid, 12 hours after culture” value is given as 23 nmol/mg skin protein; the “concentration of ascorbic acid in the tissue (in words)” value is recorded as “concentration of the ascorbic acid in the tissue could easily be enhanced effectively”. In data set [2], the Detachment tension stood at 181 g/cm; the Hydroxyproline content is 38.5 nmol/skin wet weight; the “effect on collagen synthesis and recovery of incised wound (in words)” value was “had an effect of accelerating the collagen synthesis”.
Turning to `CCCCCCCCCC(CCCCCCC)C(=O)OC[C@H](O)[C@H]1OC(=O)C(OP(=O)(O)O)=C1O.[Na]` (stereo partly drawn) [Example A-2, L-Ascorbic Acid-2-Phosphoric Acid-6-(2′-n-Heptylundecanoate) sodium salt], the “Residual Ratio (%)” value in data set [1] stood at 95.5%. Further, in data set [3], the “amount of the ascorbic acid, 2 hours after culture” value worked out at 5 nmol/mg skin protein; the “amount of the ascorbic acid, 6 hours after culture” value is given as 11 nmol/mg skin protein; the “amount of the ascorbic acid, 12 hours after culture” value came to 26 nmol/mg skin protein; the “concentration of ascorbic acid in the tissue (in words)” value is listed as “concentration of the ascorbic acid in the tissue could easily be enhanced effectively”. In data set [2], the Detachment tension worked out at 187 g/cm; the Hydroxyproline content was 37.6 nmol/skin wet weight; the “effect on collagen synthesis and recovery of incised wound (in words)” value is recorded as “had an effect of accelerating the collagen synthesis”.

(Values after patent US20060100177A1, “Stabilized ascorbic acid derivatives” (priority 2002, published 2006).)
